Assay results as given in patent publication US20250144126A1, “APPLICATION OF 5'-MONOPHOSPHATE NUCLEOTIDE AND MIXTURE THEREOF IN PREPARATION OF DRUG OR FOOD FOR IMPROVING MITOCHONDRIAL FUNCTION” (priority 2021, published 2025).
Entries after “also recorded” stand apart in the source; their conditions may differ.

Test system: H2O2-induced senescent mouse embryonic fibroblasts NIH/3T3
Experiment: Seahorse xFe96 mitochondria stress detection experiment in H2O2-induced senescent cells
Type: cell-based
Conditions: 24 h incubation after 200 μmol/L H2O2 for 4 h; for mitochondrial basal respiration / mitochondrial oxygen consumption rate (OCR): vs blank and model control; for mitochondrial ATP production capability / mitochondrial maximum respiratory value / mitochondrial respiratory reserve: vs model control, P<0.05
Procedure: In this example, concentrations of the 5′-adenosine monophosphate and the 5′-disodium uridine obtained in Example 1 were 100 μmol/L and 200 μmol/L respectively, and were recorded as AMP 100 group and UMP 200 group, respectively. […] Model control group was a senescence cell model group intervened by hydrogen peroxide. Blank control group was a group free of mixture of 5′-adenosine monophosphate, 5′-disodium uridine and 5′-monophosphate nucleotide and without hydrogen peroxide intervention.
The cells used in the example were mouse embryonic fibroblasts NIH/3T3, which were purchased from Cell Bank of Chinese Academy of Sciences.
The cells were cultured in a DMEM high-sugar medium containing 1% penicillin/streptomycin and 10% fetal bovine serum in an incubator with 5% of CO2 at 37° C. under saturated humidity conditions. The establishment of the senescence cell model was as follows: After the cells grew to the wall of a culture vessel, different concentrations of hydrogen peroxide were used for intervention, where the concentrations of hydrogen peroxide were 50 μmol/L, 100 μmol/L, 200 μmol/L, 400 μmol/L, and 800 μmol/L. The medium containing hydrogen peroxide was removed after incubation for 4 hours, and a normal complete medium (DMEM high-sugar medium containing 1% penicillin/streptomycin and 10% fetal bovine serum) was added for incubation for 24 hours, then the cell activity of the cultured cells was detected by using a CCK-8 cell active kit, the expression of β-galactosidase was detected, and the expressions of the senescent marker p16INK4A and p21Waf1/Cipl were detected by western blot method.
In this example, the oxygen consumption rate (OCR), basal respiration, maximum respiratory value, ATP production capability and respiratory reserve of mitochondria were determined by using the Seahorse xFe96 (Agilent) mitochondria stress detection experiment. 20000 NIH/3T3 cells were inoculated in each well of a 96-well cell culture plate (Nunc, 165306) except the background wells at four corners. After overnight incubation and the cells grew to the wall of the culture plate, the cells were intervened by 200 μmol/L hydrogen peroxide for 4 hours, then the medium containing hydrogen peroxide was removed, and a normal complete medium containing nucleotides with different concentrations (DMEM high-sugar medium containing 1% of penicillin/streptomycin and 10% of fetal bovine serum, and the concentrations of 5′-adenosine monophosphate and 5′-disodium uridine were respectively 100 μmol/L and 200 μmol/L, and the concentration of the nucleotide mixture was 200 μmol/L) was added for incubation for 24 hours. A probe panel (xFe96 FluxPak, Agilent, 102353-100) was hydrated with a hydration solution (XF Calibrant Solution, Agilent, 100840-000) one day in advance, and then was placed in a non-CO2 incubator for incubation for at least 12 hours at 37° C. The experimental culture solution was prepared on the day of the experiment, 1 mL of 2.5 mM glucose (Glucose, Sigma, G7528), 1 mL of 2 mM glutamine (L-glutamine, Sigma, G8540), and 1 mL of 1 mM sodium pyruvate (Sodium pyruvate, Sigma, S8636) were added to 100 mL of base medium (Seahorse XF Basemedium, Agilent, 102353-100), and the pH of the culture solution was adjusted to 7.4±0.05 with 1N of NaOH. The culture solution of the cell culture plate was replaced with the experimental culture solution, 40 μL/well of the original medium was removed from the cell culture plate, then 160 μL/well of the experimental culture solution was added into the cell culture plate for dilution, and then 160 μL of the mixed culture solution was sucked out; the process was repeated for 2-3 times, finally the volume of the experimental culture solution in each well was 175 μL, and the cell culture plate was stood for 1 hour at 37° C.

SMILES | mitochondrial basal respiration (200 μmol/L) | mitochondrial ATP production capability (200 μmol/L) | mitochondrial maximum respiratory value (200 μmol/L) | mitochondrial respiratory reserve (200 μmol/L) | mitochondrial basal respiration (100 μmol/L) | mitochondrial oxygen consumption rate (OCR) (100 μmol/L) | mitochondrial ATP production capability (100 μmol/L) | mitochondrial maximum respiratory value (100 μmol/L) | mitochondrial respiratory reserve (100 μmol/L) | mitochondrial oxygen consumption rate (OCR) (200 μmol/L)
Nc1ccn([C@@H]2O[C@H](COP(=O)(O)O)[C@@H](O)[C@H]2O)c(=O)n1 [CMP, 5′-cytidine monophosphate] | increased and significantly lower than that in the nucleotide mixture group; also recorded: little effect | increased (P<0.05) but significantly lower than that in the nucleotide mixture group; also recorded: little effect | increased (P<0.05) but significantly lower than that in the nucleotide mixture group; also recorded: little effect | – | – | – | – | – | – | –
Nc1nc2c(ncn2[C@@H]2O[C@H](COP(=O)([O-])[O-])[C@@H](O)[C@H]2O)c(=O)[nH]1.[Na+].[Na+] [GMP, 5′-disodium guanylate] | – | increased (P<0.05) but significantly lower than that in the nucleotide mixture group; also recorded: little effect | increased (P<0.05) but significantly lower than that in the nucleotide mixture group; also recorded: little effect | increased (P<0.05) but significantly lower than that in the nucleotide mixture group; also recorded: little effect | – | – | – | – | – | –
Nc1ncnc2c1ncn2[C@@H]1O[C@H](COP(=O)(O)O)[C@@H](O)[C@H]1O [AMP, 5′-adenosine monophosphate] | – | – | – | – | returned to normal level | returned to normal level | significantly increased | significantly increased | significantly increased | –
O=c1ccn([C@@H]2O[C@H](COP(=O)([O-])[O-])[C@@H](O)[C@H]2O)c(=O)[nH]1.[Na+].[Na+] [UMP, 5′-disodium uridine] | significantly higher than that of the model control group; also recorded: returned to normal level | significantly increased | significantly increased | significantly increased | – | – | – | – | – | returned to normal level
